Assay [1] has as its target T1, 5-hydroxytryptamine receptor 2C (Homo sapiens) (UniProt P28335).
T1 sequence (whole entry): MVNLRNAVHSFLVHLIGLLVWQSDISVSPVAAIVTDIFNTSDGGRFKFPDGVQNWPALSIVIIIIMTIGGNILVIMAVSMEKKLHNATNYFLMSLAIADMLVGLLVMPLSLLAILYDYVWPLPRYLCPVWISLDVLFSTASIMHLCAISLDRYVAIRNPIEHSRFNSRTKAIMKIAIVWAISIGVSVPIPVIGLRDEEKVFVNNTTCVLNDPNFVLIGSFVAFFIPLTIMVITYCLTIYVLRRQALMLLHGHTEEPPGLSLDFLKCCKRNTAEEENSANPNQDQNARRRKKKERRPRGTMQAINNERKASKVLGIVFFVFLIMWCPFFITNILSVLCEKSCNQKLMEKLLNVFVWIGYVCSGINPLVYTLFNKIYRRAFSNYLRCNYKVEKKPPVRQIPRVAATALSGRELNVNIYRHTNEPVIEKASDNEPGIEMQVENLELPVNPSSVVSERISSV
The assay is described as follows: Displacement of [3H]-Mesulergine from human 5-HT2C receptor at 10 uM incubated for 1 hr by liquid scintillation counting method. (In general: Loss of bound radioactivity is the signal in a displacement assay; it reports binding, not function.)

For assay [2], the target named is D(2) dopamine receptor (Homo sapiens, UniProt P14416). Put plainly: Displacement of [3H]N-methylspiperone from human dopamine D2 receptor at 10 uM incubated for 1 hr by liquid scintillation counting method.
Assay [3] concerns the target D(3) dopamine receptor (Homo sapiens, UniProt P35462). Put plainly: Displacement of [3H]N-methylspiperone from human dopamine D3 receptor at 10 uM incubated for 1 hr by liquid scintillation counting method.
The target of assay [4] is T2, D(4) dopamine receptor (Homo sapiens) (UniProt P21917).
T2 sequence (whole entry): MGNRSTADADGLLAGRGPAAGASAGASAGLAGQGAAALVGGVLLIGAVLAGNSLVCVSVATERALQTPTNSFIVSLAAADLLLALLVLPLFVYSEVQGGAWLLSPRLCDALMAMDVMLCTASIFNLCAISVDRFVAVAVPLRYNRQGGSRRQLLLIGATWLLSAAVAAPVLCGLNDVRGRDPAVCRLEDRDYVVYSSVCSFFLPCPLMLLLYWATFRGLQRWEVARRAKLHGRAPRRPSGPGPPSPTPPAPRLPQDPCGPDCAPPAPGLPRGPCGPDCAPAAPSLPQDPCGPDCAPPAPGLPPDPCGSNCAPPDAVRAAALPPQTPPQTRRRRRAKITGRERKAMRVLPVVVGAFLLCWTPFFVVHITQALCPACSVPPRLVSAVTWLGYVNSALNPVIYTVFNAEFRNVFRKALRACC
The assay is described as follows: Displacement of [3H]N-methylspiperone from human dopamine D4 receptor at 10 uM incubated for 1 hr by liquid scintillation counting method.

The source made the active and inactive calls. The rule behind the calls is not given here.

Chain of D(2) dopamine receptor (P14416 whole entry): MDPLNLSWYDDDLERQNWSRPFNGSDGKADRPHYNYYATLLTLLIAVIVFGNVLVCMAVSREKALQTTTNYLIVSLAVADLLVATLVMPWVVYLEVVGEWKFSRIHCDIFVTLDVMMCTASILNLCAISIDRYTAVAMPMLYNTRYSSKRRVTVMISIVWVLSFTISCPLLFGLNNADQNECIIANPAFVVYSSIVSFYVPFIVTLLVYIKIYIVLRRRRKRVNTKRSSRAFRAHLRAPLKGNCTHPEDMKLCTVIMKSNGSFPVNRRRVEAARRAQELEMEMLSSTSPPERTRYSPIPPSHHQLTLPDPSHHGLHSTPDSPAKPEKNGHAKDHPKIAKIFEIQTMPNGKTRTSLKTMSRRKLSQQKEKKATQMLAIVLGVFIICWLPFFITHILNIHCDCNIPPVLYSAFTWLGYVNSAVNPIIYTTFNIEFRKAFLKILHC
Chain of D(3) dopamine receptor (P35462 whole entry): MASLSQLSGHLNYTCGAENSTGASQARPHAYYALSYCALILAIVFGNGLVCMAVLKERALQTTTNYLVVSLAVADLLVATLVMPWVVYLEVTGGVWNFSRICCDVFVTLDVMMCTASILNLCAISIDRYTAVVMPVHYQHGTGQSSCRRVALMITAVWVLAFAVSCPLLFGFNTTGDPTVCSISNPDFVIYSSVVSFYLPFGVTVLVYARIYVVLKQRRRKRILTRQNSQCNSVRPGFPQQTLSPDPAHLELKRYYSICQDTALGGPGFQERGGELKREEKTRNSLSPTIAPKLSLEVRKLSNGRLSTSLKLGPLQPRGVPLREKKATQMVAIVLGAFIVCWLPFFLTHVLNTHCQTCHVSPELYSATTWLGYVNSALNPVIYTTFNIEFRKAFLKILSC

As to `Nc1ccc(CCCCN2CCN(c3ccccn3)CC2)cc1`, the inhibition result in assay [1] is “inactive”.

For `O=C1CCc2cc(C(=O)CCCN3CCN(c4ccccn4)CC3)ccc2N1`, the inhibition entry in assay [1] was “inactive”.

`OC1c2ccc(F)cc2CC1CCN1CCN(c2ccccn2)CC1` (stereo not given): the inhibition entry in assay [1] is “inactive”.

Take `O=C1c2ccc(Cl)cc2CC1CCN1CCN(c2ccccn2)CC1` (stereo not given): the inhibition result in assay [2] and in assay [3] was “inactive” throughout.

On to `O=C1CCc2cc(OCCCN3CCN(c4ccccn4)CC3)ccc21`, for which the inhibition result in assay [2] was “inactive”.

Take `O=C1CCc2cc(OCCCN3CCCN(c4ccccn4)CC3)ccc2N1`: the inhibition result in assay [4] was “inactive”.

Consider `O=C1c2ccc(Cl)cc2CC1CCCN1CCN(c2ccccn2)CC1` (stereo not given), for which, in assay [2], the inhibition entry was “inactive”.

With `O=C1c2ccc(F)cc2CC1CCN1CCN(c2ccccn2)CC1` (stereo not given), the inhibition entry in assay [2] and in assay [1] was “inactive” each time.
